Data reported in ChEMBL document CHEMBL3991601, “The target landscape of clinical kinase drugs” (Science, 2017).
The source made the active and inactive calls. Rule as the data show it: actives have a measured Kd and inactives only a lower limit.

How the values were obtained:
[1] = molecular target: Mitogen-activated protein kinase 8 (Homo sapiens, UniProt P45983)
[2] = molecular target: STE20-like serine/threonine-protein kinase (Homo sapiens, UniProt Q9H2G2)
Activin receptor type-1B = molecular target: T1, Activin receptor type-1B (Homo sapiens, UniProt P36896)
T1 sequence (P36896 whole entry): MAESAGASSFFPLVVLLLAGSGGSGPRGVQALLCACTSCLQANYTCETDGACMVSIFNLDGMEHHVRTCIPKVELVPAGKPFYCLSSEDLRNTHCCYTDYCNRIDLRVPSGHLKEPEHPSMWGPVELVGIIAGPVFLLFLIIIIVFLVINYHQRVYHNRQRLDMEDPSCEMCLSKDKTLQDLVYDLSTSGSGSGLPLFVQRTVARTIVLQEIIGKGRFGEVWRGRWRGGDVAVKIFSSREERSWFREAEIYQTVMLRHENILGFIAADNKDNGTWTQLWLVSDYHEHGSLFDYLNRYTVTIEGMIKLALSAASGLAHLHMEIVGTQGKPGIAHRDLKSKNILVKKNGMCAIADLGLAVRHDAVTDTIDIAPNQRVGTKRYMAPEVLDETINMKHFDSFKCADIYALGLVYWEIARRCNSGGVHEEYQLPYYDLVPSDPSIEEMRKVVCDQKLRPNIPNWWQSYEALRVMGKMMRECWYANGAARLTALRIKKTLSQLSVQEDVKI

Ephrin type-A receptor 1 = molecular target: T2, Ephrin type-A receptor 1 (Homo sapiens, UniProt P21709)
T2 sequence (P21709 whole entry): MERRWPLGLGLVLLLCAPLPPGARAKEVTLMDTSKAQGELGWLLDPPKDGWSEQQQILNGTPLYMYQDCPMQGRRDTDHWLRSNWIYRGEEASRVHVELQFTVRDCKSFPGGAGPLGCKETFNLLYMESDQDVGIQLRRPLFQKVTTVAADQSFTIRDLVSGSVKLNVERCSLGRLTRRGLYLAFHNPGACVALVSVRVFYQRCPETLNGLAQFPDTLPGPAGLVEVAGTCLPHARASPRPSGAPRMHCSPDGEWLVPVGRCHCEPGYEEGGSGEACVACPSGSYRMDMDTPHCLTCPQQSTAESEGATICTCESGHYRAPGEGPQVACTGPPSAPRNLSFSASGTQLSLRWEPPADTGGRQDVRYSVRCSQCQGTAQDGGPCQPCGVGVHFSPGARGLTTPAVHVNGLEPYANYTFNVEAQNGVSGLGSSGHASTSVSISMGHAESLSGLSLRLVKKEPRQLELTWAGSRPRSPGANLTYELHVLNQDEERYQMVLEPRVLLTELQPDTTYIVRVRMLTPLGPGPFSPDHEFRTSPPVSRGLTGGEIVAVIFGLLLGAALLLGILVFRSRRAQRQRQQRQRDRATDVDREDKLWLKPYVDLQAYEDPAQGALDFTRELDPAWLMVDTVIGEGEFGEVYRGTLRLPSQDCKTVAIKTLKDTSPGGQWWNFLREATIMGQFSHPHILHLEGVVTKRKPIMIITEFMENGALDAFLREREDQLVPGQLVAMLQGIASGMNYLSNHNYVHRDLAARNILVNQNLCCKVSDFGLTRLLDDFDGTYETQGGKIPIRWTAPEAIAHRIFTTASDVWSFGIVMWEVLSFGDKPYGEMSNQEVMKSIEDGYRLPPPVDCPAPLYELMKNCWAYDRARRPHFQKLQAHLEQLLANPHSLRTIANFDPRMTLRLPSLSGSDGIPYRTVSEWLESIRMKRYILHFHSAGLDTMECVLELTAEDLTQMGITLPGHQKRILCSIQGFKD

Ephrin type-B receptor 4 = molecular target: T3, Ephrin type-B receptor 4 (Homo sapiens, UniProt P54760)
T3 sequence (P54760 whole entry): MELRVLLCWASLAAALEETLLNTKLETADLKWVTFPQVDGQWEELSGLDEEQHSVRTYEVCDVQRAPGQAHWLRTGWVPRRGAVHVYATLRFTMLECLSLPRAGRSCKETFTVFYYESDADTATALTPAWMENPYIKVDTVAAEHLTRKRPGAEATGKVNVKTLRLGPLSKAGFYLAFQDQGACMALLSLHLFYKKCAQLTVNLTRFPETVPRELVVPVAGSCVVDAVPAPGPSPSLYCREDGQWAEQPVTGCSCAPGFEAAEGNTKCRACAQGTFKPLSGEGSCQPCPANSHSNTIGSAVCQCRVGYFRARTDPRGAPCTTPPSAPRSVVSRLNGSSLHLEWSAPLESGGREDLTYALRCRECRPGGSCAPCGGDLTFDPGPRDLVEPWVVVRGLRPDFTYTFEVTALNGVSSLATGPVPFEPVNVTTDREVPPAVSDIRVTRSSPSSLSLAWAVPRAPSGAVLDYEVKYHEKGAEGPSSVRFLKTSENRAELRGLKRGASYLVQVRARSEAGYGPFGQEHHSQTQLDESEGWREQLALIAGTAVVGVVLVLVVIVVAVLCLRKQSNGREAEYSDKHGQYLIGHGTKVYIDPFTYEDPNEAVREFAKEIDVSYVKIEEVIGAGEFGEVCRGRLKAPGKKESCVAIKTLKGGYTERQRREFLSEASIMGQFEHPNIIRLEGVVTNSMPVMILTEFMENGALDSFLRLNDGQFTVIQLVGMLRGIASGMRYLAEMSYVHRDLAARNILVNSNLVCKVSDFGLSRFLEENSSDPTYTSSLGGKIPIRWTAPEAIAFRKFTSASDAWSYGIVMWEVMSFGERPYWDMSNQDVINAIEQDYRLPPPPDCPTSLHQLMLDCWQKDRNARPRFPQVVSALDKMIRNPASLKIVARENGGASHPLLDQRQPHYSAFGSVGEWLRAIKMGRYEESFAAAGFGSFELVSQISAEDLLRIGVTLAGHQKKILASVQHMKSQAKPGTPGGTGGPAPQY

[3] = molecular target: TRAF2 and NCK-interacting protein kinase (Homo sapiens, UniProt Q9UKE5)
TRAF2 and NCK-interacting protein kinase, sequence (Q9UKE5 whole entry): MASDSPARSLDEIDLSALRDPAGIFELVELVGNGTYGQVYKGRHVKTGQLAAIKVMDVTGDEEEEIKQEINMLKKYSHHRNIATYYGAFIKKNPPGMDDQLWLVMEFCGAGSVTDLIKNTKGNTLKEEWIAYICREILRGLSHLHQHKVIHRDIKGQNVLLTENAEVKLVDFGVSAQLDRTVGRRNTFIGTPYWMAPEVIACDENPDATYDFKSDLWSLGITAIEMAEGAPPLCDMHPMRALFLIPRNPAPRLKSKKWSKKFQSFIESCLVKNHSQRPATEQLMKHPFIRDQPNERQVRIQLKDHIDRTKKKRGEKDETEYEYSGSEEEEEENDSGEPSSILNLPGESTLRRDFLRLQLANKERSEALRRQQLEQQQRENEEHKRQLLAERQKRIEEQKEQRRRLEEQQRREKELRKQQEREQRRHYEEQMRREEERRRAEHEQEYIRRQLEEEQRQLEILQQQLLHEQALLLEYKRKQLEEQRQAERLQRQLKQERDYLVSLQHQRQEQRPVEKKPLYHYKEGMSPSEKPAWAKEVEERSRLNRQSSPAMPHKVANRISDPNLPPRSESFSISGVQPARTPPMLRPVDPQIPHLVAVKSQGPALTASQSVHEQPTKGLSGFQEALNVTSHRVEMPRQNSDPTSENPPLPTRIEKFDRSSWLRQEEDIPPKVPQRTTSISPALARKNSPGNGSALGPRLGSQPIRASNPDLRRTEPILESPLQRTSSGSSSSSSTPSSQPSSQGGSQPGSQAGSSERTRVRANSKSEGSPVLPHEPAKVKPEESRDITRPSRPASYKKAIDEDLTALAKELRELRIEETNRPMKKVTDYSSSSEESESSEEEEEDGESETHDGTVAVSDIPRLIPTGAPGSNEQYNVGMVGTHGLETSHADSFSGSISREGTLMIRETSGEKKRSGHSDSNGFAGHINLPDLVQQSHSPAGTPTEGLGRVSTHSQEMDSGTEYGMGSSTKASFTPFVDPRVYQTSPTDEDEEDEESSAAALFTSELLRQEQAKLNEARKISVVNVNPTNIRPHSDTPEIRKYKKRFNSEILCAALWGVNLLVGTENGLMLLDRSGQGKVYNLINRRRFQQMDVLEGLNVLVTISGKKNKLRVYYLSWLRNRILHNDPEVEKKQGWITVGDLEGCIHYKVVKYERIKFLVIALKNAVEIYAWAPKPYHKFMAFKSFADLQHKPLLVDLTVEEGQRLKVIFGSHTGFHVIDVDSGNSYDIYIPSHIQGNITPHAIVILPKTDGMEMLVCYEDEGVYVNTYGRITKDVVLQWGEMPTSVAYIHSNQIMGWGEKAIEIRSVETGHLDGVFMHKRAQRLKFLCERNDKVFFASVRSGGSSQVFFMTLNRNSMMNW

[4] = molecular target: Glycogen synthase kinase-3 beta (Homo sapiens, UniProt P49841)
Glycogen synthase kinase-3 beta, sequence (P49841 whole entry): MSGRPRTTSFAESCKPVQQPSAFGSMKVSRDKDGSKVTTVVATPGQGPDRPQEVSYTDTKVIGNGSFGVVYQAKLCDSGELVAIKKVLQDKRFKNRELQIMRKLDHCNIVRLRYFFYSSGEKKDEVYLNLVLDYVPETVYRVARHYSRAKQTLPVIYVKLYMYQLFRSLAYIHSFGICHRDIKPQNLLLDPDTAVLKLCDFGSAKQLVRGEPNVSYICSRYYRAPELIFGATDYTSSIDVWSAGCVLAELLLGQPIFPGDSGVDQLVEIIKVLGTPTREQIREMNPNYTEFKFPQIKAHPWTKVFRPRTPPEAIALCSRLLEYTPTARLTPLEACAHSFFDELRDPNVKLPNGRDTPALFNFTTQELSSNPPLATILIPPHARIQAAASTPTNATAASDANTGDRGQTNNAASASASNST
Also: in the data inactive means no Kd found up to 30 µM.

STE20-like serine/threonine-protein kinase, sequence (Q9H2G2 whole entry): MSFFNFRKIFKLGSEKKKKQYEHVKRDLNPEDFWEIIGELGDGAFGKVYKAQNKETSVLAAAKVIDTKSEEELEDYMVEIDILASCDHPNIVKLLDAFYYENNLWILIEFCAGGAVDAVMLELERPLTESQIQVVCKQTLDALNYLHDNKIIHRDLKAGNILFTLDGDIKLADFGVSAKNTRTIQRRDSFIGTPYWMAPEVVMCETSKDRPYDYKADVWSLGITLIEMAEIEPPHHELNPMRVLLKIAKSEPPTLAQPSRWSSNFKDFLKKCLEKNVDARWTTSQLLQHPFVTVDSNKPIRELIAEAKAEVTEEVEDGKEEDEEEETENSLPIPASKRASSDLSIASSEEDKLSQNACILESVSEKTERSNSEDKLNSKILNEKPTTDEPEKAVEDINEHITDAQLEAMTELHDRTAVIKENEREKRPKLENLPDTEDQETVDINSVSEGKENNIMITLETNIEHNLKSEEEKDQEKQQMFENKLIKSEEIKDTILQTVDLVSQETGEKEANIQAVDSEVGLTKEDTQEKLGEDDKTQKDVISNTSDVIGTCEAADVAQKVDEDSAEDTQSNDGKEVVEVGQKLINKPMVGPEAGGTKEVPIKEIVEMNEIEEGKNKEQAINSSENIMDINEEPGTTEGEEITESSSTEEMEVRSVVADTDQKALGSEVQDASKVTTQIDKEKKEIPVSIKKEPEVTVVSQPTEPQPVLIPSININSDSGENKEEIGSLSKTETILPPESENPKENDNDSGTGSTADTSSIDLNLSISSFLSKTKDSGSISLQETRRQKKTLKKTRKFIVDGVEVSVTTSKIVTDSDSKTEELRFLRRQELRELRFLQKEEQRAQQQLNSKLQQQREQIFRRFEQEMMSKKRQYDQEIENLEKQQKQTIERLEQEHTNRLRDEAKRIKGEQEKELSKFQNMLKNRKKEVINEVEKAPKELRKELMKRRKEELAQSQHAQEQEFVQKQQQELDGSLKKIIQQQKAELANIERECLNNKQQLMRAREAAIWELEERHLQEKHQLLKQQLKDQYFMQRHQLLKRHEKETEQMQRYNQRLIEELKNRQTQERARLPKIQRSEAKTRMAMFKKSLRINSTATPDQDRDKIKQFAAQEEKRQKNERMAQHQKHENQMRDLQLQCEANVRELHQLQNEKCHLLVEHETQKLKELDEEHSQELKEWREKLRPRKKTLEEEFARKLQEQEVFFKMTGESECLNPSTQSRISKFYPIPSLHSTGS
Mitogen-activated protein kinase 8, sequence (P45983 whole entry): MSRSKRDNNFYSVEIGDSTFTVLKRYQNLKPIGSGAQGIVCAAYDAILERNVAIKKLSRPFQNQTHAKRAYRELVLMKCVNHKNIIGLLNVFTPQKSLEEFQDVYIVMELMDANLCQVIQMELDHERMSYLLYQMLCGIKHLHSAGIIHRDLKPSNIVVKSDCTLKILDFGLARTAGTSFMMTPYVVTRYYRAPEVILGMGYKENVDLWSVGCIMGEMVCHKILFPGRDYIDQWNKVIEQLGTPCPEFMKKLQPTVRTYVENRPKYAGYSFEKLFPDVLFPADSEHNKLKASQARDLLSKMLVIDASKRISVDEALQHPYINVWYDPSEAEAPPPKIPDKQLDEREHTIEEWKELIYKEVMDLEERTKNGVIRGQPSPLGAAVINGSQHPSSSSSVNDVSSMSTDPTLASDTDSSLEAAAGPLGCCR

| Structure (SMILES) | Kd [1] | Kd [2] | Kd (Activin receptor type-1B) | Kd (Ephrin type-A receptor 1) | Kd (Ephrin type-B receptor 4) | Kd [3] | Kd [4] |
| --- | --- | --- | --- | --- | --- | --- | --- |
| Cn1cc(-c2cnc3ccc4ccc(CS(=O)(=O)NCc5ccccn5)cc4c(=O)c3c2)cn1 [MK-8033] | > 30 µM (inactive) | > 30 µM (inactive) | > 30 µM (inactive) | > 30 µM (inactive) | > 30 µM (inactive) | > 30 µM (inactive) | > 30 µM (inactive) |
| CN(C[C@@H]1COCCO1)S(=O)(=O)Nc1ccc2ccc3ncc(-c4cnn(C)c4)cc3c(=O)c2c1 [MK-2461] | > 30 µM (inactive) | > 30 µM (inactive) | > 30 µM (inactive) | > 30 µM (inactive) | > 30 µM (inactive) | > 30 µM (inactive) | > 30 µM (inactive) |
| CN1C/C=C/CCOc2cccc(c2)-c2ccnc(n2)Nc2cccc(c2)C1 [ZOTIRACICLIB] | 1.46 µM (active) | 6.37 µM (active) | > 30 µM (inactive) | > 30 µM (inactive) | > 30 µM (inactive) | > 30 µM (inactive) | 0.447 µM (active) |
| CC(=O)c1cnc2ccc(-c3cc(Cl)c(O)c(Cl)c3)nc2c1N[C@H]1CC[C@H](CN(C)C)CC1 | – | 0.113 µM (active) | – | 0.091 µM (active) | 0.143 µM (active) | – | – |
| CC(C)(C)c1nc(-c2cccc(NS(=O)(=O)c3c(F)cccc3F)c2F)c(-c2ccnc(N)n2)s1 [DABRAFENIB] | > 30 µM (inactive) | > 30 µM (inactive) | 0.601 µM (active) | 0.705 µM | – | > 30 µM (inactive) | – |
| CCn1cc(-c2ccnc3[nH]c(-c4cccc(CN(C)C)c4)cc23)c(-c2ccc(NC(=O)N(C)C)cc2)n1 [GSK-1070916] | – | > 30 µM (inactive) | 1.21 µM (active) | > 30 µM (inactive) | > 30 µM (inactive) | > 30 µM (inactive) | > 30 µM (inactive) |
| COc1cc(Nc2ncc3c(n2)-c2ccc(Cl)cc2C(c2c(F)cccc2OC)=NC3)ccc1C(=O)O [ALISERTIB] | – | – | > 30 µM (inactive) | > 30 µM (inactive) | – | > 30 µM (inactive) | – |
| Cc1cc(C(=O)NOCCO)c(Nc2ccc(I)cc2F)n(C)c1=O [AZD-8330] | > 30 µM (inactive) | > 30 µM (inactive) | > 30 µM (inactive) | – | > 30 µM (inactive) | > 30 µM (inactive) | > 30 µM (inactive) |
| Cc1nc2cc(-c3nn(C(C)C)c4ncnc(N)c34)ccc2o1 | > 30 µM (inactive) | > 30 µM (inactive) | 0.767 µM (active) | > 30 µM (inactive) | > 30 µM (inactive) | > 30 µM (inactive) | – |
| O=C1NC(=O)[C@@H](c2cn3c4c(cccc24)CCC3)[C@@H]1c1c[nH]c2ccccc12 [TIVANTINIB] | > 30 µM (inactive) | > 30 µM (inactive) | > 30 µM (inactive) | – | > 30 µM (inactive) | > 30 µM (inactive) | > 30 µM (inactive) |
| CNC(=O)c1nn(C)c2c1C(C)(C)Cc1cnc(Nc3ccc(N4CCN(C)CC4)cc3)nc1-2 [MILCICLIB] | > 30 µM (inactive) | > 30 µM (inactive) | > 30 µM (inactive) | > 30 µM (inactive) | 1.07 µM (active) | – | > 30 µM (inactive) |
| CC(=O)NCC(=O)N1[C@@H]2CC[C@H]1c1ccc(Nc3ncc(C(F)(F)F)c(NC4CCC4)n3)cc12 [PF-03814735] | – | – | > 30 µM (inactive) | > 30 µM (inactive) | > 30 µM (inactive) | 0.746 µM (active) | – |
| COc1ncc(-c2ccc3nccc(-c4ccnnc4)c3c2)cc1NS(=O)(=O)c1ccc(F)cc1F [OMIPALISIB] | > 30 µM (inactive) | > 30 µM (inactive) | > 30 µM (inactive) | – | > 30 µM (inactive) | > 30 µM (inactive) | > 30 µM (inactive) |
| Cc1cccc(-c2nn3c(c2-c2ccnc4ccc(C(N)=O)cc24)CCC3)n1 [GALUNISERTIB] | > 30 µM (inactive) | > 30 µM (inactive) | 0.016 µM (active) | – | > 30 µM (inactive) | 1.21 µM | > 30 µM (inactive) |
| Cc1[nH]c(/C=C2\C(=O)Nc3ccccc32)c(C)c1CCC(=O)O [ORANTINIB] | – | – | > 30 µM (inactive) | > 30 µM (inactive) | > 30 µM (inactive) | 0.012 µM | – |
| Cc1csc(-c2nnc(Nc3ccc(Oc4ncccc4-c4ccnc(N)n4)cc3)c3ccccc23)c1 [AMG-900] | > 30 µM (inactive) | > 30 µM (inactive) | > 30 µM (inactive) | – | > 30 µM (inactive) | > 30 µM (inactive) | > 30 µM (inactive) |
| CN1CCN(CCOc2cc(OC3CCOCC3)c3c(Nc4c(Cl)ccc5c4OCO5)ncnc3c2)CC1 [SARACATINIB] | > 30 µM (inactive) | – | 0.142 µM (active) | – | 3.88 µM (active) | 1.38 µM (active) | > 30 µM (inactive) |
| CNC(=O)c1cc(Oc2ccc(NC(=O)Nc3cc(C(C)(C)C)nn3-c3ccc4ncccc4c3)c(F)c2)ccn1 [REBASTINIB] | – | > 30 µM (inactive) | > 30 µM (inactive) | – | > 30 µM (inactive) | 1.88 µM (active) | > 30 µM (inactive) |
| CCOc1cc2ncc(C#N)c(Nc3ccc(F)c(Cl)c3)c2cc1NC(=O)/C=C/CN(C)C [PELITINIB] | > 30 µM (inactive) | > 30 µM (inactive) | > 30 µM (inactive) | > 30 µM (inactive) | > 30 µM (inactive) | – | > 30 µM (inactive) |
| COc1c(OCCCN2CCOCC2)ccc2c1N=C(NC(=O)c1cnc(N)nc1)N1CCN=C21 [COPANLISIB] | > 30 µM (inactive) | > 30 µM (inactive) | > 30 µM (inactive) | – | > 30 µM (inactive) | > 30 µM (inactive) | > 30 µM (inactive) |
| NC(=O)Nc1cc(-c2cccc(F)c2)sc1C(=O)N[C@H]1CCCNC1 [AZD-7762] | > 30 µM (inactive) | 1.09 µM (active) | > 30 µM (inactive) | – | > 30 µM (inactive) | 0.094 µM (active) | > 30 µM (inactive) |
| NC(=O)c1c(OCc2c(F)cc(Br)cc2F)nsc1NC(=O)NCCCCN1CCCC1 [OSI-632] | – | – | 0.004 µM (active) | > 30 µM (inactive) | > 30 µM (inactive) | > 30 µM (inactive) | – |
| O=C(Nc1c[nH]nc1-c1nc2cc(CN3CCOCC3)ccc2[nH]1)NC1CC1 [AT-9283] | 0.157 µM (active) | 0.402 µM (active) | 0.811 µM (active) | – | – | 0.801 µM (active) | 0.007 µM (active) |
